According to patent publication US20120121691A1, “Method for Increasing the Production of a Specific ACYL-Chain Dihydroceramide(s) for Improving the Effectiveness of Cancer Treatments” (priority 2010, published 2012):
“Also recorded” adds a separate entry of the source.

Assays:
[1] = system: pre-T acute lymphoblastic leukemia cell lines CCRF-CEM, MOLT-4, COG-LL-317 and COG-LL-332; assay: DIMSCAN cytotoxicity assay across the four pre-T ALL cell lines; assay type: cell-based, human; conditions: COG-LL-317, COG-LL-332, CCRF-CEM, 4-HPR 0-9 μM, 48 hours
Source text: (§1) Cell culture. The pre-T acute lymphoblastic leukemia cell lines MOLT-4 and CCRF-CEM, small cell lung cancer cell line NCI-H146, non-small cell lung cancer cell line NCI-H1792, colon cancer cell lines LoVo and HT-29, and breast cancer cell line MCF-7, were purchased from American Type Culture Collection, Manassas, Va., and grown at 20%/5% and 5%/5%, respectively. COG-LL-317 and COG-LL-332 pre-T acute lymphoblastic leukemia cell lines were obtained from the TTUHSC Cancer Center Cell Repository and grown at 5%/5%. Cell line identities were verified by short tandem repeat analysis and mycoplasma testing was performed. Cell lines were maintained in RPMI-1640 medium supplemented with 10% fetal bovine serum (FBS, Invitrogen) in humidified, 37° C. incubators. […]
(§2) Cytotoxicity Assay. Cytoxicity is determined using the DIMSCAN assay system (R. Proffitt et al., Cytometry 24, 204-213 (1996); T. Frgala et al., Proc. AACR, 36, 303 (1995). The system employs digital imaging microscopy to quantify viable cells, which selectively accumulate fluorescein diacetate to become brightly fluorescent. The system is capable of measuring cytotoxicity over a 4-5 log dynamic range by quenching the residual fluorescence of dead and dying cells with eosin Y and quantifying the total fluorescence of viable cells using digital thresholding. Measured fluorescence is directly proportionate to the number of viable cells. […]

LoVo colon cancer cells = assay: DIMSCAN cytotoxicity assay, LoVo; assay type: cell-based, human; conditions: fatty acid 5 micromolar
Source text: (§3) Cell culture. The pre-T acute lymphoblastic leukemia cell lines MOLT-4 and CCRF-CEM, small cell lung cancer cell line NCI-H146, non-small cell lung cancer cell line NCI-H1792, colon cancer cell lines LoVo and HT-29, and breast cancer cell line MCF-7, were purchased from American Type Culture Collection, Manassas, Va., and grown at 20%/5% and 5%/5%, respectively. COG-LL-317 and COG-LL-332 pre-T acute lymphoblastic leukemia cell lines were obtained from the TTUHSC Cancer Center Cell Repository and grown at 5%/5%. Cell line identities were verified by short tandem repeat analysis and mycoplasma testing was performed. Cell lines were maintained in RPMI-1640 medium supplemented with 10% fetal bovine serum (FBS, Invitrogen) in humidified, 37° C. incubators. For all experiments, ALL cell lines were seeded at […] in RPMI-1640 medium supplemented with 15% fetal bovine serum. Solid tumor cell lines were plated at 5×cells/mL in RPMI-1640 medium supplemented with 10% fetal bovine serum.
(§4) Cytotoxicity Assay. Cytoxicity is determined using the DIMSCAN assay system (R. Proffitt et al., Cytometry 24, 204-213 (1996); T. Frgala et al., Proc. AACR, 36, 303 (1995). The system employs digital imaging microscopy to quantify viable cells, which selectively accumulate fluorescein diacetate to become brightly fluorescent. The system is capable of measuring cytotoxicity over a 4-5 log dynamic range by quenching the residual fluorescence of dead and dying cells with eosin Y and quantifying the total fluorescence of viable cells using digital thresholding. Measured fluorescence is directly proportionate to the number of viable cells.
(§5) In brief, 5,000 to 25,000 cells/well depending on the cell line (5,000 for solid tumor, 25,000 for ALL cell lines) were replicate plated into 60 wells of a 96-well tissue culture plate in 0.1 cc media and allowed to attach or recover overnight. Drug(s) are then added in 0.05 cc media to the final concentrations indicated. […] Total fluorescence of viable cells is then measured by digital imaging microscopy and the signal normalized to control cells. […]

[2] = system: NCI-H146 small cell lung cancer cells; assay: DIMSCAN cytotoxicity assay, NCI-H146; assay type: cell-based, human; conditions: NCI-H146, fatty acid 5 micromolar
Source text: as §3, §4, §5

[3] = system: MCF-7 breast cancer cells; assay: DIMSCAN cytotoxicity assay, MCF-7; assay type: cell-based; conditions: MCF-7, fatty acid 5 micromolar
Source text: as §3
as §4, with “cells. A comparison of the total fluorescence of a drug-treated cell population to the fluorescence of a similar number of untreated cells yields a survival fraction.” for “cells.”
(§6) In brief, 5,000 to 25,000 cells/well depending on the cell line (5,000 for solid tumor, 25,000 for ALL cell lines) were replicate plated into 60 wells of a 96-well tissue culture plate in 0.1 cc media and allowed to attach or recover overnight. […]

[4] = system: NCI-H1792 non-small cell lung cancer cells; assay: DIMSCAN cytotoxicity assay, NCI-H1792; assay type: cell-based; conditions: NCI-H1792, fatty acid 5 micromolar
Source text: as §3
as §4, with “cells. A comparison of the total fluorescence of a drug-treated cell population to the fluorescence of a similar number of untreated cells yields a survival fraction.” for “cells.”
as §6

reactive oxygen species = assay: Reactive oxygen species generation; assay type: cell-based, human; conditions: C22:0-fatty acid with sphinganine plus GT-11
CCRF-CEM cells = assay: DIMSCAN cytotoxicity assay, CCRF-CEM; assay type: cell-based; conditions: 48 hours
Source text: as §1, §2

Which “effect of fatty acid on fenretinide (4-HPR) cytotoxicity” value [1] does the source give for CCCCCCCCCCCCCCCCCCCCCC(=O)O [C22:0-fatty acid] here?
Its value is “enhanced; also recorded: significantly increased cytotoxicity”.

What about the “effect of fatty acid on fenretinide cytotoxicity” value (LoVo colon cancer cells) of the same compound?
The value was “increased fenretinide cytotoxicity”.

And the “effect of fatty acid on fenretinide cytotoxicity” value [2]?
The value was “increased fenretinide cytotoxicity”.

What about the “effect of fatty acid on fenretinide cytotoxicity” value [3] of the same compound?
The value was “increased fenretinide cytotoxicity”.

And the “effect of fatty acid on fenretinide cytotoxicity” value [4]?
The value was “increased fenretinide cytotoxicity”.

What about the “increase of reactive oxygen species” value (reactive oxygen species) of the same compound?
Its value is “not observed”.

For CCCCCCCC/C=C\CCCCCCCCCCCC(=O)O [C22:1-fatty acid], which “effect of fatty acid addition on sphinganine/GT-11 cytotoxicity” value (CCRF-CEM cells) is on record?
The value was “did not impart any additional cytotoxicity”.
